Results from patent US20050288299A1, “Azaindole derivatives as inhibitors of p38 kinase” (priority 2002, published 2005).

Target: p38α kinase (Homo sapiens, UniProt Q16539)
Test: p38α Flash Plate Assay (p38 kinase inhibition)
Type: biochemical
Details: in vitro; 150 μM ATP, 0.05 mM biotinylated peptide substrate, 5 nM enzyme, 60 minute incubation at 30° Celsius; read-out: P38 α-FLASHPLATE IC50
Description: Assay for p38 Kinase Inhibition—p38α Flash Plate Assay
The compounds to be tested were solubilized in DMSO and diluted with water to the desired concentrations. The p38 kinase was diluted to 20 nM into a buffer containing 20 mM MOPS, pH 7.0, 25 mM beta-glycerol phosphate, 2 mg/ml gelatin, 0.5 mM EGTA (ethylene-bis-(oxyethylenenitrilo)-tetraacetic acid), and 4 mM dithiothreitol (DTT).
The reaction was carried out by mixing 20 μl test compound with 10 μl of a substrate cocktail containing 0.2 mM biotinylated peptide substrate and 0.6 mM ATP (+100 μCi/ml gamma-^33P-ATP) in a 5× assay buffer. The reaction was initiated by the addition of 10 μl of p38 kinase. Final assay conditions were 25 mM MOPS, pH 7.0, 26.25 mM beta-glycerol phosphate, 80 mM KCl, 22 mM MgCl2, 3 mM MgSO4, 1 mg/ml gelatin, 0.625 mM EGTA, 1 mM DTT, 0.05 mM peptide substrate, 150 μM ATP, and 5 nM enzyme. After a 60 minute incubation at 30° Celsius, the reaction was stopped by the addition of 10 μl per reaction of 0.25 M phosphoric acid.
A portion of the reaction was transferred to a streptavidin-coated Flash Plate (Perkin Elmer); the Flash Plate was incubated for 60 minutes at 30° Celsius and then washed 3× with PBS containing 0.01% Tween-20.
Counts incorporated are determined on a scintillation counter. Relative enzyme activity was calculated by subtracting background counts (counts measured in the absence of enzyme) from each result, and comparing the resulting counts to those obtained in the absence of inhibitor. IC50 values were determined with curve-fitting plots available with common software packages. The IC50 was expressed as the concentration of compound which inhibited the enzyme activity by 50%.

Chain of p38α kinase (Q16539 whole entry): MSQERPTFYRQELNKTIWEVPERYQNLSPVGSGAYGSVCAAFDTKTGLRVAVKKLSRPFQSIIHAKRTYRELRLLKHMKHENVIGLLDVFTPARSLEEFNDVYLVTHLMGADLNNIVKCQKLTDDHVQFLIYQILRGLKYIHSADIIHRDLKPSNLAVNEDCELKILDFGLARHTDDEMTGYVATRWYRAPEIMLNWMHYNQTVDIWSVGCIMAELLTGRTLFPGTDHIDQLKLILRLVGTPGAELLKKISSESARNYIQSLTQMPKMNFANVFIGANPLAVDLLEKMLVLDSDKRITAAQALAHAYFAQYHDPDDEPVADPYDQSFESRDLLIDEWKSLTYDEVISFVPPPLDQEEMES

CNC(=O)C(=O)c1c[nH]c2cc(OC)c(C(=O)N3C[C@H](C)N(Cc4ccc(F)cc4)C[C@H]3C)nc12 [compound 76]
IC50: 98 nM
